A short description of one data set: Flashpoint of materials. The class given is physicochemical. The protocol: In a preferred embodiment A2 of the first aspect, the solvent (B) has a flashpoint (determined according to ISO 2719:2016) of more than 130° C., preferably more than 135° C., and in particular more than 140° C.
Data set [1] can be described thus: NxPT recovery on closed storage of urea treated in the melt with urease inhibitor formulations in different solvents (Example 2). The class given is physicochemical. The note with it: 550 ppm NxPT added to urea melt; closed storage at 30° C. and 40° C.; 2 and 6 months; HPLC DIN_EN_16651. The procedure: 900 g urea+20 mL water were added to a metal pan and heated to 135° C.+1−5° C. under continuous stirring using an overhead stirrer. When all urea was melted, the respective amount of urease inhibitor formulation was added to the urea melt to achieve an NxPT (i.e. NBPT and NPPT) concentration of 550 ppm in urea. After 1 minute of mixing, the molten urea was poured onto an aluminum tray and let cool down at room temperature for 30 min. Afterwards, the urea was broken up in pieces of 1-6 mm and stored in closed polyethylene bottles at 30° C. and 40° C. After 2 and 6 months samples were taken and analyzed for active ingredient concentration. […] The resulting NxPT concentrations from both measurements were averaged.

A short description of data set [2]: NxPT recovery on closed storage at 30° C. of urea coated with amine-containing formulations (Example 5). In kind it is physicochemical. The protocol:
3 kg of urea fertilizer granules were added to an ERWEKA mixer (dimensions mix drum: 50 cm diameter, 20 cm high). The mixer was turned on (27 RPM) and the respective amount of urease inhibitor formulation (formulations of NBPT and NPPT in DEG with additional amine were prepared as shown in Table 3 below) was sprayed onto the urea using a syringe to achieve a total NxPT concentration of 550 ppm (137.5 ppm NPPT and 412.5 ppm NBPT) on urea. The fertilizer/urease inhibitor mixture was mixed for 5 minutes. Afterwards, the treated urea was stored in closed polyethylene bottles at 30° C. Samples were taken after 1, 2, 3 and 6 months and analyzed for active ingredient concentration. […] The resulting NxPT concentrations from both measurements were averaged.

For data set [3] the following is noted: granulated urea, 0.055 wt.-% NBPT+NPPT; closed storage 20° C., 30° C., 40° C., up to 12 months; compared to samples containing PEI.
Protocol: In a test plant, urea was granulated in a fluidized bed granulator having a cylindrical fluidized bed of diameter 40 cm at a temperature of about 108° C. […] The fluidization air flowed at a superficial flow rate of about 2 m/s into the fluidized bed. An overflow was mounted 10 cm above the baseplate at the side wall of the bed. A defined amount (about 30 kg) of urea particles or urea granules having a narrow size distribution was then introduced into the granulator column as seeds for the granulation. The bed with the seeds (about 50 cm deep) was fluidized with hot air at a temperature of about 100° C., and the addition of 96 to 97% by weight urea solution at a temperature of about 135° C. was commenced as soon as the bed had reached the temperature of about 108° C. that was envisaged for the run. From a reservoir tank, the urea solution having a water content of 3-4% by weight was then introduced into the fluidized bed granulator at a rate of 300 kg/h via a spray nozzle that was operated at a temperature of about 140° C. with air, supplied at a rate of 240 kg/h. […]
Samples of the resulting urea granules were stored in closed polyethylene bottles at 20° C., 30° C. and 40° C. Samples were taken after 0, 1, 2, 3, 4, 6, and 12 months and analyzed for active ingredient concentration. From each sample 2×15 g was dissolved in 100 mL water and analyzed using HPLC method DIN_EN_16651. […]

As for `C[S+](C)[O-]` [DMSO, Dimehtyl sulfoxide], in “Flashpoint of materials”, the Flashpoint is 95 °C. Also, the “ranking of the stabilizing properties of the tested solvents” value in data set [1] is listed as “DEG>DPG>PG>N,N-Agnique AMD 3L>DMSO”.
For `OCCOCCO` [DEG, Diethylene glycol], the Flashpoint in “Flashpoint of materials” was determined as 142 °C. In addition, the “stabilizing properties on NxPT during storage of the treated urea, among the tested glycols” value in data set [1] was “best stabilizing properties”.
The compound `CC(O)CN(CCO)CCO` (stereo not shown) [DEIPA, Diethanol isopropanol amine] yielded a Flashpoint in “Flashpoint of materials” of 191 °C. Further, the “performance in urease inhibitor formulations applied as coating to urea” value in data set [2] (550 ppm NxPT sprayed onto urea granules, closed storage 30° C., 1, 2, 3 and 6 months) is “same performance”. Also, the stabilizing effect entry in data set [2] (amine in DEG formulation of NBPT and NPPT on urea) is “stabilizing effect”. Further, the “storage stability in urea” value in data set [3] is “higher storage stability”.
The compound `CC(O)CO` (stereo not shown) [PG, Propylene glycol] returned a Flashpoint in “Flashpoint of materials” of 99 °C.
As to `CC(O)C(=O)N(C)C` (stereo not shown) [Agnique AMD 3L, N,N-Dimethyl lactamide], in the data set “Flashpoint of materials”, the Flashpoint was found to be 103 °C.

(Values after patent US20250276942A1, “UREASE INHIBITOR FORMULATION FOR USE IN UREA GRANULATION PROCESS” (BASF SE, priority 2021, published 2025).)
